Assays:
[1] = tested on: Lipoxygenase; experiment: Ex-Vivo Measurement of Lipoxygenase Inhibition in Orally Dosed Rats (LTB4 in A23187-stimulated blood); design: species or system Male Sprague Dawley rats; settings: ex vivo rat, p.o.
Method: 2. […] After an interval of 3 or 6 hours, the rats were anesthetized with metofane (n =4/group) and blood collected in heparinized tubes. White blood cell counts and differentials were made. One ml of blood from each animal was placed in a 5 ml plastic tube in a shaker bath at 37° C. A23187 at a final concentration of 10 μM was added to the blood and the blood vortexed and incubated for 15 min at 37° C. with gentle shaking. Incubation was terminated by vortexing sample and centrifuging immediately at 1200 xG for 15 min at 4° C. The plasma was transferred to 15 ml plastic tubes each containing 8 ml of methanol to precipitate protein followed by vortexing. The samples were stored at -70° C. overnight and the next day the samples were centrifuged at 800 xG for 15 min to pellet the precipitate. The samples were dried in a Savant SpeedVac Concentrator Model SVC 200H and reconstituted to the original volume with cold RIA or ELISA buffer. The reconstituted samples were stored at -70° C. until assayed. The assay for LTB4 was perforated according to the directions of the [^3 H]RIA kit or ELISA kit (Seragen). The total metabolite level in 1 ml of blood is calculated and reported as ng/10^6 neutrophils. Significance is determined by a one-way analysis of variance with LSD comparisons to control (p<0.05).

[2] = tested on: Low Density Lipoprotein; experiment: Inhibition of Copper Ion Mediated Oxidation of Low Density Lipoprotein; format: biochemical; settings: Cu+2 mediated oxidation of rabbit or monkey LDL, 37° C., 90 minutes, 532 nm
Method: 5. Inhibition of Copper Ion Mediated Oxidation of Low Density Lipoprotein
In this in vitro assay, the inhibition of Cu^+2 mediated oxidation of rabbit or monkey LDL by an invention compound is determined spectrophotometricallly. Oxidation of LDL results in the formation of LDL-diene which absorbs light at 532 nm. Inhibition of oxidation of LDL leads to a decrease in absorbance at 532 nm.
Rabbit or monkey LDL is prepared according to the procedures of Havel, Eder and Gragdon, "The Distribution and Chemical Composition of Ultracentrifugally Separated Lipoproteins in Human Serum,: J. Clin. Invest. 34, 1345-1353 (1955) and Parhtasarathy, Wieland and Steriberg, "A Role for Endothelial Cell Lipoxygenase in the Oxidative Modification of Low Density Lipoprotein," Proc. Natl. Acad. Sci. USA 86, 1046-1050 (1989). Test compound solutions are prepared by dissolving the invention compounds in ethanol at concentrations up to 248 μM. The medium used is Dulbecco's phosphate buffered saline containing 0.5 mg/ml bovine serum albumin. For standards, 0 to 10 μl of an aqueous solution of 1,1,3,3-tetraethoxypropane (1 μmol/ml H2 O) in 4.1 ml of medium is used.
Test compound solution ([…]) is added to 4 ml of medium in incubation tubes. To each tube is added 10 μl of LDL solution and 25 μl of aqueous copper sulfate solution (1.32 mg/ml H2 O). The tubes are incubated at 37° C. for 90 minutes and the oxidation reaction quenched by addition of 1 ml of thiobarbituric acid solution (0.67% in 50% acetic acid). The tubes are heated at 90° C. for 1 hour, then chilled in an ice bath and the chromophore extracted into 2 ml of n-butanol. Absorbence is read at 532 nm and the results are reported as nmols of malondialdehyde equivalents.
Significant differences (p<0.05) are determined by the Dunnett T-test or by the Student-Newman-Keuls Test for significant differences between means. The assay is conducted using several concentrations [I] of the inhibitor test compounds. The LDL solution concentrations at different experiments were either 1.5 mg/ml, 2.5 mg/ml or 10.3 mg/ml. The IC50 is determined by non-linear regression, plotting log [I] vs. % inhibition. (Reference: K. Yagi, Biochemical Medicine 15,212-216 (1976)).

[3] = dose 25 (mg/kg), pretreatment 3 hr

## NC(=O)N(O)Cc1ccc(OCCc2noc(-c3ccccc3)n2)cc1 [Example 21, 1-hydroxy-1-[4-[2-(5-phenyl-[1,2,4]-oxadiazol-3-yl)-ethoxy]-benzyl]-urea]
[1]; dose 5 (mg/kg), pretreatment 6 hr
  % Inhibition of LTB4: 60%

## Cc1oc(-c2ccccc2)nc1CCOc1ccc(C(C)N(O)C(N)=O)cc1 (stereo not shown) [Example 4]
[2]
  IC50: 1300 nM
[1]; [3]
  % Inhibition of LTB4: 57%

## Cc1oc(-c2ccccc2)nc1CCOc1ccc(CN(O)C(N)=O)cc1 [Example 1]
[2]
  IC50: 690 nM
[1]; [3]
  % Inhibition of LTB4: 79%

## Cc1oc(-c2ccc(C(F)(F)F)cc2)nc1CCOc1ccc(CN(O)C(N)=O)cc1 [Example 13, 1-Hydroxy-1-[4-[2-[5-methyl-2(4-trifluoromethyl-phenyl)-oxazol-4-yl]-ethoxy]benzyl]-urea]
[2]
  IC50: 820 nM
[1]; dose 1 (mg/kg), pretreatment 6 hr
  % Inhibition of LTB4: 50%
